Measurements: PMC4831050 (Journal of natural products, 2016)
≈ marks a conversion by molar mass, not a printed value.

Experiments:
[1] = In vitro cytotoxicity, sulforhodamine B; format: cell-based; conditions: human
[2] = system: L. donovani promastigotes; assay: In vitro killing of L. donovani promastigotes; format: cell-based, Leishmania donovani (strain LV 82); conditions: Leishmania donovani, 72 h, read-out: L. donovani promastigotes IC50
[3] = system: L. donovani promastigotes; conditions: isolated from other plant species; cited from earlier work
[4] = system: trypanosomal farnesyl diphosphate synthase (FPPS); conditions: cited from earlier work
[5] = system: human farnesyl diphosphate synthase (FPPS); conditions: cited from earlier work
[6] = cited from earlier work
Stability in solution = format: physicochemical; conditions: room temperature
[7] = HT-29 colorectal carcinoma cells

| Compound | IC50 at 72 h [1, 7] | IC50 [2] | also measured |
| --- | --- | --- | --- |
| CC(C)c1cc2c(cc1O)[C@@]1(C)CCCC(C)(C)[C@@H]1[C@@H](O)C2=O [Compound 14, 6α-hydroxysugiol] | 11.4 µg/mL (≈ 36 µM) | 7.8 µg/mL (≈ 24.6 µM) |  |
| CC(C)C1=CC2=CC(=O)[C@H]3C(C)(C)CCC[C@]3(C)C2=C(O)C1=O [Compound 10, taxodione] | 0.8 µg/mL (≈ 2.54 µM) | 0.5 µg/mL (≈ 1.59 µM) | antileishmanial activity against L. donovani promastigotes in vitro [3]: potent antileishmanial agent; inhibition of trypanosomal farnesyl diphosphate synthase (FPPS) [4]: inhibitor; inhibition of human farnesyl diphosphate synthase (FPPS) [5]: inhibitor |
| COCC(=O)[C@H]1C(C)(C)CCC[C@]1(C)C1=C(O)C(=O)C(C(C)C)=CC1=O [Compound 2, (1′S,2′S)-6-hydroxy-4-isopropyl-2′-(2-methoxyacetyl)-1′,3′,3′-trimethyl-[1,1′-bi(cyclohexane)]-3,6-diene-2,5-dione] | 1.6 µg/mL (≈ 4.41 µM) | 2.5 µg/mL (≈ 6.9 µM) |  |
| CC(C)c1cc2c(c(O)c1O)[C@@]1(C)CCCC(C)(C)C1=C(O)C2=O [Compound 16, 14-deoxycoleon U] |  | > 20 µg/mL | IC50 at 72 h [1]: 4.4 µg/mL (≈ 13.3 µM) |
| CC(C)c1cc2c(cc1O)[C@@]1(C)CCCC(C)(C)[C@@H]1CC2 [Compound 12, ferruginol] | 11.3 µg/mL (≈ 39.4 µM) | 13.1 µg/mL (≈ 45.7 µM) | reported antioxidant and gastroprotective activity [6]: bioavailable antioxidant and gastroprotective agent |
| Cc1ccc2c3c1CCCC(C)(C)C3C(=O)C(C(C)C)=C2 (racemic) [Compound 4, (±)-11-dehydroxymicrostegiol] |  |  | stability in solution (Stability in solution): stable in solution at room temperature |
